Measured values published in patent US20190242874A1, “HUMAN EPITHELIAL CELL LINE FOR 3-D MODELIZING OF CANCER AND TREATMENT THEREOF” (GALDERMA RESEARCH & DEVELOPMENT, priority 2011, published 2019).

What was measured:
[1] = tested on: KNBCCS6 E6/E7 immortalized keratinocytes; test: Organotypic skin reconstruction: epidermal invasion of KNBCCS6 E6/E7 keratinocytes into dermal equivalent of NBCCS6 fibroblasts (histology); assay type: cell-based, human; details: 10 mM inhibitor, 0.1% DMSO, added 24 hrs before raising at air-liquid interface; compared with FIG. 4A control (FIG. 4B, 4C)
Description: Organotypic skin reconstruction using KNBCCS E6/E7 was performed using standard protocols as described in (Bernerd et al., 2001). In brief 10^6 NBCCS6 primary fibroblasts cultured in standard culture medium as described above were embeded in a bovine collagen I lattice. After contraction (48 hrs) lattices were fixed on platic using a collagen glue, KNBCCS6 were then seeded (50 000 cells per lattice) within a stainless ring, left for 6 days in immersion; the day 6) before emersion (day 7), mounts were treated with appropriate concentration of SHH:PTCH pathway inhibitor with a final a 0.1% DMSO concentration until the end of experiment. Control cultures were treated with 0.1% DMSO. After 7 days of emersion at air-liquid interface, cultures were harvested for subsequent analyses including histology and assessment of tacer/reporter gene activity. (FIG. 3 and FIG. 4)
FIGS. 4B, 4C show the same as FIG. 4A, except that organotypic skin cultures were grown 24 hrs before being raised at air-liquid interface in the presence ce of […] of GDC-0449 (B) or […] (SANT1) SHH/PTCH pathway inhibitors.

[2] = tested on: SHH/PTCH signaling pathway; test: Response of the immortalized keratinocyte cell line to SHH/PTCH pathway agonist and antagonists; assay type: cell-based, human; details: conclusion statement; no concentration given
Description: Purmorphamine (SMO agonist) and GDC-0449 (SMO antagonist) were diluted in DMSO at stock concentrations of 50 mM and 10 mM, respectively. To avoid side effects and toxicity, the final concentration of DMSO was fixed to 0.1% DMSO.
Theses cells can be expanded in a simple defined medium and they can grow easily due to immortalization. This tool is 3D organotypic culture system to evaluate the efficacy of anti-tumoral molecules specifically targeting inappropriate activation of the SHH/PTCH pathway occurring in BCC but also in numerous non BCC cancers including other cancer implicating inappropriate activation of the SHH/PTCH pathway. Assessment of inhibitor efficacy is applicable in the long term by skin regeration in vivo using animal vector including the mouse or the mini pig sytems.

Structure (SMILES) | size and frequency of epidermal invasion [1] | effect on SHH/PTCH signaling pathway in immortalized human keratinocyte cell line [2]
CS(=O)(=O)c1ccc(C(=O)Nc2ccc(Cl)c(-c3ccccn3)c2)c(Cl)c1 [GDC-0449] | substantially decreased | inhibition of the activation
c1ccc2c(Oc3nc(Nc4ccc(N5CCOCC5)cc4)c4ncn(C5CCCCC5)c4n3)cccc2c1 [purmorphamine, Purmorphamine] | – | activation
Cc1nn(-c2ccccc2)c(C)c1/C=N/N1CCN(Cc2ccccc2)CC1 [SANT1] | substantially decreased | inhibition of the activation
